The values that follow come from US4456601A, “3-Chloro-pregnane derivatives and a process for the preparation thereof” (Richter Gedeon Vegyeszeti Gyar Rt., priority 1981, dated 1984).

Structures are written as SMILES. Read-outs that look alike come from different tables or passages of the source.

Assay [1] deals with carrageenin-induced planter oedema. Description: Inhibition of carrageenin-induced planter oedema (systemic antiphlogistic effect). The format is in vivo. An excerpt: (§1) Systemic antiphlogistic effect
(a) Inhibition of carrageenin-induced planter oedema [Winter et al.: J. Pharm. Exp. Therap. […]]
In general terms: In the carrageenan paw model, swelling and tenderness develop within hours.

Assay [2] relates to thymus weight. Description: Thymus involution (reduction of thymus weight) in rats. Type of assay: in vivo. As to the method: (§2) It is known that glucocorticoids cause thymus involution [O. Greengard, R. Machovich: "Hydrocortisone Regulation of Thymidine Kinase in Thymus Involution and Hematopoietic Tissues", Biochem. Biophys. Acta 286, 382-388 (1972)], 50% reduction of thymus weight was observed on chickens with a dose of 0.01 mg/100 g and on rats with a dose of 0.001 mg/100 g for both TCA and 3-chloro-TCA.

Assay [3] has as its system cotton granuloma. The assay is described as follows: Local cotton granuloma test (local antiphlogistic effect). The format is in vivo. The source says:
(§3) Local antiphlogistic effect
(b) Local cotton granuloma test [B. Silvestrini: Arzneim. Forsch. 19, 30 (1969)]

The target of assay [4] is T1, rat liver glucocorticoid receptors (Rattus norvegicus, UniProt P06536).
T1 construct: from tissue; host or cells: rat liver
T1 sequence (P06536 1-795): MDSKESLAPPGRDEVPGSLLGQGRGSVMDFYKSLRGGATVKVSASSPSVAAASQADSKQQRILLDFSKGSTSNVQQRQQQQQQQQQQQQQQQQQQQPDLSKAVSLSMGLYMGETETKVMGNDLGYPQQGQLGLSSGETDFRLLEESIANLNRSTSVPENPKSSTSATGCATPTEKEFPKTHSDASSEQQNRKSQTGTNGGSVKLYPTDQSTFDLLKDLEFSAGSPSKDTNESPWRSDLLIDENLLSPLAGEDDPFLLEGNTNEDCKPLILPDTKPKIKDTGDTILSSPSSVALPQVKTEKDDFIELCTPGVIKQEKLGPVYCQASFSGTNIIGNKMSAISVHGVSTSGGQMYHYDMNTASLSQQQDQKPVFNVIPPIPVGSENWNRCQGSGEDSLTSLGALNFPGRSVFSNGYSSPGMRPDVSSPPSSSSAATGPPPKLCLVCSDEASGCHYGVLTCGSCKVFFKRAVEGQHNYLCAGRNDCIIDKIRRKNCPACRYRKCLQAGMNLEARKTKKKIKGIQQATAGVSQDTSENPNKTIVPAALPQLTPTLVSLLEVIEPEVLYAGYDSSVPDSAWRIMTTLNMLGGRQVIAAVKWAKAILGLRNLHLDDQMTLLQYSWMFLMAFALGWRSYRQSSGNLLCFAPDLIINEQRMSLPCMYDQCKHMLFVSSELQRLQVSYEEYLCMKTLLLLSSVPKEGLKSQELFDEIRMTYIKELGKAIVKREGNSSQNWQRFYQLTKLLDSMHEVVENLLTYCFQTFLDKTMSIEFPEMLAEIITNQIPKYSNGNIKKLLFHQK
Description: Affinity to rat liver glucocorticoid receptors (method of Baxter et al.). The format is binding. The source says: A. Munck and K. Leung: "Receptors and Mechanism of Action of Steroid Hormones", Ed.

The subject of assay [5] is cotton granuloma. Description: Cotton granuloma test (systemic antiphlogistic effect). Type of assay: in vivo.
Source text: as §1
(c) Cotton granuloma test [C. A. Winter et al: J. Pharm. Exp. Therap. 141, 369 (1963)]

Assay [6] concerns ear inflammation provoked by croton oil. The assay is described as follows: Inhibition of ear inflammation provoked by croton oil (local antiphlogistic effect). The format is in vivo.
Source text: as §3
(c) Inhibition of ear inflammation provoked by croton oil [Tonelli et al.: Endocrinology 77, 625 (1965)]

Assay [7] deals with thymus weight. Description: Thymus involution (reduction of thymus weight) in chickens. The format is in vivo. The procedure:
as §2

The test system of assay [8] is granuloma pouch. The assay is described as follows: Granuloma pouch test according to Selye (systemic antiphlogistic effect). The format is in vivo.
Source text: as §1
(b) Granuloma pouch test according to Selye [J. Selye: Recent Progr. Horm. Res. 8, 117 (1953)]

Assay [9] has as its system granuloma pouch. Description: Local pouch test according to Selye (local antiphlogistic effect). The format is in vivo.
Source text: as §3
(a) Local pouch test according to Selye [Bianchetti et al.: Arzneim. Forsch. 27, 2096 (1977)]

The target in assay [10] is T1, rat liver glucocorticoid receptors. Particulars: on the basis of literature data (Munck and Leung); read-out: apparent dissociation constant; cited from earlier work.
Where [11] appears, read: rat liver glucocorticoid receptors, read-out: apparent dissociation constant.

Turning to `CC1(C)O[C@@H]2C[C@H]3[C@@H]4CC=C5C=C(Cl)C=C[C@]5(C)[C@@]4(F)[C@@H](O)C[C@]3(C)[C@]2(C(=O)CO)O1` [Example 3-Chloro-TCA, 3-chloro-9α-fluoro-11β,16α,17α,21-tetrahydroxy-pregna-1,3,5-triene-20-one-16,17-acetonide], the Inhibition % was 30.2% in assay [1] (2 mg/kg p.o.); 38.7% in assay [1] (6 mg/kg p.o.); 24.1% in assay [3] (0.033 mg/cotton); 51.4% in [3] (0.10 mg/cotton); 22.0% in assay [5] (0.5 mg/kg s.c.); 26.0% in assay [5] (1.5 mg/kg s.c.). Further, the Inhibition % is 30.0% in assay [6] (0.02 mg/ml); 52.9% in assay [6] (0.10 mg/ml); 90.8% in [8] (0.5 mg/kg s.c.); 90.1% in [8] (1.5 mg/kg s.c.); 26.0% in assay [9] (0.033 mg/pouch); 32.3% in assay [9] (0.10 mg/pouch). For the same compound, the “dose giving 50% reduction of thymus weight” value in assay [2] came to 0.001 mg/100 g; in assay [7], 0.01 mg/100 g. For the same compound, the Kd in assay [4] (setting [11]) was found to be 30 nM.

For the compound `CC1(C)O[C@@H]2C[C@H]3[C@@H]4C[C@H](F)C5=CC(=O)C=C[C@]5(C)[C@@]4(F)[C@@H](O)C[C@]3(C)[C@]2(C(=O)CO)O1` [fluocinolon-acetonide, 6α,9α-difluoro-11β,16α,17α,21-tetrahydro-pregna-1,4-diene-3,20-dione-16,17-acetonide, reference compound], the Kd in assay [4] is 15 nM.

Regarding `CC1(C)O[C@@H]2C[C@H]3[C@@H]4CC(Br)=C5C=C(Cl)C=C[C@]5(C)[C@@]4(F)[C@@H](O)C[C@]3(C)[C@]2(C(=O)CO)O1` [3-chloro-6-bromo-TCA, 3-chloro-6-bromo-9α-fluoro-11β,16α,17α,21-tetrahydroxy-pregna-1,3,5-triene-20-one-16,17-acetonide], the Kd in assay [4] (setting [11]) came to 60 nM.

Regarding `CC1(C)O[C@@H]2C[C@H]3[C@@H]4CCC5=CC(=O)C=C[C@]5(C)[C@@]4(F)[C@@H](O)C[C@]3(C)[C@]2(C(=O)CO)O1` [TCA, 9α-fluoro-11β,16α,17α,21-tetrahydroxy-pregna-1,4-diene-3,20-dione-16,17-acetonide, reference compound], the “dose giving 50% reduction of thymus weight” value in assay [2] was 0.001 mg/100 g; in [7] it was 0.01 mg/100 g. The Kd in assay [10] is 10 nM.

For `CC1(C)O[C@@H]2C[C@H]3[C@@H]4CC(F)=C5C=C(Cl)C=C[C@]5(C)[C@@]4(F)[C@@H](O)C[C@]3(C)[C@]2(C(=O)CO)O1` [Example 3-chloro-FCA, 3-chloro-6,9α-difluoro-11β,16α,17α,21-tetrahydroxy-pregna-1,3,5-triene-20-one-16,17-acetonide], in assay [4] (setting [11]), the Kd came out at 25 nM.

In the case of `CC(=O)OCC(=O)[C@@]12OC(C)(C)O[C@@H]1C[C@H]1[C@@H]3CC=C4C=C(Cl)C=C[C@]4(C)[C@@]3(F)[C@@H](O)C[C@@]12C` [3-Chloro-TCA-21-acetate, 3-chloro-9α-fluoro-11β,16α,17α,21-tetrahydroxy-pregna-1,3,5-triene-20-one-16,17-acetonide-21-acetate], the Inhibition % came out at 8.9% in assay [1] (2 mg/kg p.o.); 9.6% in assay [1] (6 mg/kg p.o.); 52.4% in assay [3] (0.033 mg/cotton); 35.3% in [3] (0.10 mg/cotton); 33.0% in assay [5] (0.5 mg/kg s.c.); 91.0% in assay [5] (1.5 mg/kg s.c.). The Inhibition % in [6] (0.02 mg/ml) worked out at 10.0%; in assay [6] (0.10 mg/ml) it was 17.8%; in [8] (0.5 mg/kg s.c.) it was 56.6%; in [8] (1.5 mg/kg s.c.), 73.3%; in assay [9] (0.033 mg/pouch), 12.4%; in assay [9] (0.10 mg/pouch), 26.3%.
